Earlier results on one molecule are cited in patent US8187607B2, “Hapten-carrier conjugates and uses thereof” (Cytos Biotechnology AG, priority 2002, dated 2012).

This data set concerns cigarette smokers. The conditions noted are these: at 12 months.

As for `CC(NC(C)(C)C)C(=O)c1cccc(Cl)c1` (stereo not shown) [bupropion], the Abstinence rates result is “about 30%”.
